Assays:
[1] = test system: patients with advanced solid tumors; experiment: Safety and tolerability; format: in vivo, human; details: single-agent SDS sachet cohort, all doses, 61 patients
[2] = human, in vivo
advanced solid tumors = experiment: Best overall response, all patients; format: in vivo, human; details: single agent and combination
[3] = test system: patients with advanced solid tumors; details: single-agent BEZ235, oral once daily, continuous 28-day cycles
mTOR = details: cellular assays; cited from earlier work
PI3K/mTOR = details: cellular assays; cited from earlier work
solid tumors = details: cited from earlier work

| Compound | Diarrhea, frequency [1] | Nausea, frequency [1] | Vomiting, frequency [1] | Bioavailability [2] | Patients with PR as best overall response (advanced solid tumors; 5 patients) | Patients with SD as best overall response (advanced solid tumors; 62 patients) | MTD [3] | concentration at which mTOR inhibition predominates (mTOR) | concentration at which dual PI3K/mTOR blockade is observed (PI3K/mTOR) | Incidence of stomatitis (solid tumors) |
| --- | --- | --- | --- | --- | --- | --- | --- | --- | --- | --- |
| Cn1c(=O)n(-c2ccc(C(C)(C)C#N)cc2)c2c3cc(-c4cnc5ccccc5c4)ccc3ncc21 [BEZ235] | 75.4% | 80.3% | 63.9% | low bioavailability | 2.7% | 33.9% | 1200 mg/day | < 100 nmol/L | ≈ 500 nmol/L |  |
| CO[C@H]1C[C@@H]2CC[C@@H](C)[C@@](O)(O2)C(=O)C(=O)N2CCCC[C@H]2C(=O)O[C@H]([C@H](C)C[C@@H]2CC[C@@H](OCCO)[C@H](OC)C2)CC(=O)[C@H](C)/C=C(\C)[C@@H](O)[C@@H](OC)C(=O)[C@H](C)C[C@H](C)/C=C/C=C/C=C/1C [everolimus] |  |  |  |  |  |  |  |  |  | 59–71% |
